Source: PMC9780825, “Combining mKate2-Kv1.3 Channel and Atto488-Hongotoxin for the Studies of Peptide Pore Blockers on Living Eukaryotic Cells” (Toxins, 2022)
Entries after “also recorded” stand apart in the source; their conditions may differ. Residues, ends and D or L forms follow the SMILES beside them.

Assays:
[1] = target: T1, K-Kv1.3 (human Kv1.3 N-terminally tagged with mKate2) (Homo sapiens, UniProt P22001); experiment: Confocal imaging of A-HgTx binding and displacement, K-Kv1.3 in HEK293 cells
T1 construct: membrane expression of the full-length human Kv1.3 was poor in X. oocytes, deletion of N-terminal M1-D52 residues boosted; expressed in transfected cells; host or cells: HEK293 (transient transfection with pmKate2-KCNA3)
T1 sequence (P22001 whole entry, the tested form may be a part): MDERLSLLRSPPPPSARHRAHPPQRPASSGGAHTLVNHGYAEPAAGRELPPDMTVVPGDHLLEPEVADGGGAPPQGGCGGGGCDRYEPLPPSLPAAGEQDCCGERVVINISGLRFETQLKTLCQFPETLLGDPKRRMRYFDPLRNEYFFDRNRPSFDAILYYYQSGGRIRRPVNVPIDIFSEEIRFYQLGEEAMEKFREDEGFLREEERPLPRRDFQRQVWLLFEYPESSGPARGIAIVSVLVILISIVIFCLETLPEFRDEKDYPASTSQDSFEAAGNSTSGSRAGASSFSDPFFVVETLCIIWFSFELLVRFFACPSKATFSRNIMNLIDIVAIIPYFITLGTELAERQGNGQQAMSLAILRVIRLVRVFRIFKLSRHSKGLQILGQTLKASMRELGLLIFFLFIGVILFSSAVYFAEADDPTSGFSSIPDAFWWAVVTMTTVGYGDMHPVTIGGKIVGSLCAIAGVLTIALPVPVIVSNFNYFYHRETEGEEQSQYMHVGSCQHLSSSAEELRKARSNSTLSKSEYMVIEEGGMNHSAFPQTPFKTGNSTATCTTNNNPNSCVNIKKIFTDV
Protocol: (§1) Figure 4 Confocal imaging of A-HgTx interactions (green) with mKate2-tagged Kv1.3 channels (red) transiently expressed in HEK293 cells. (A–D) Binding (A,B) of A-HgTx (2 nM) to Kv1.3-K and its displacement (C,D) by HgTx1 (40 nM). (E–H) Binding (E,F) of A-HgTx (2 nM) to K-Kv1.3 and its displacement (G,H) by HgTx1 (40 nM). (I–L) Binding (I,J) of A-HgTx (2 nM) to K-ΔKv1.3 and its displacement (K,L) by HgTx1 (40 nM). (M,N) Control measurement of the binding of A-HgTx (2 nM) to intact (no transfection) HEK293 cells. (O,P) Control measurement of the background signal in the wavelength range corresponding to the A-HgTx emission (O) from HEK293 cells expressing K-ΔKv1.3 (without addition of A-HgTx). The scale bar is equal to 20 μm. (A,E,I,M,C,G,K,O) Distribution of A-HgTx. (B,F,J,N,D,H,L,P) Distribution of mKate2-tagged Kv1.3 channels.
(§2) KCNA3 gene encoding human Kv1.3 channel (hKv1.3, Accession number NP_002223.3) was a generous gift from Dr. A. Vassilevski. […]
(§3) Fluorescence of mKate2-fused hKv1.3 was excited at the 561 nm wavelength and recorded in the 650–700 nm range. Fluorescence of A-HgTx was excited at the 488 nm wavelength and recorded in the 495–535 nm range. Distributions of A-HgTx and mKate2 fluorescence in cells were imaged using sequential scanning to avoid interference of intrinsic cellular fluorescence excited at the 488 nm with the mKate2 fluorescence.

[2] = system: intact HEK293 cells that do not express mKate2-tagged Kv1.3; experiment: Control: A-HgTx binding to intact HEK293 cells; conditions: 2 nM A-HgTx; no transfection; confocal imaging
Protocol: as §1, with “channels. […]” for “channels.”
as §3

[3] = target: T2, K-ΔKv1.3 (N-terminally truncated human Kv1.3 tagged with mKate2) (Homo sapiens, UniProt P22001); experiment: Confocal imaging of A-HgTx binding and displacement, K-ΔKv1.3 in HEK293 cells; parameters: expressed in transfected cells; host or cells: HEK293 (transient transfection with pmKate2-KCNA3-del)
T2 sequence (P22001 53-575 limits assumed, stated change not applied): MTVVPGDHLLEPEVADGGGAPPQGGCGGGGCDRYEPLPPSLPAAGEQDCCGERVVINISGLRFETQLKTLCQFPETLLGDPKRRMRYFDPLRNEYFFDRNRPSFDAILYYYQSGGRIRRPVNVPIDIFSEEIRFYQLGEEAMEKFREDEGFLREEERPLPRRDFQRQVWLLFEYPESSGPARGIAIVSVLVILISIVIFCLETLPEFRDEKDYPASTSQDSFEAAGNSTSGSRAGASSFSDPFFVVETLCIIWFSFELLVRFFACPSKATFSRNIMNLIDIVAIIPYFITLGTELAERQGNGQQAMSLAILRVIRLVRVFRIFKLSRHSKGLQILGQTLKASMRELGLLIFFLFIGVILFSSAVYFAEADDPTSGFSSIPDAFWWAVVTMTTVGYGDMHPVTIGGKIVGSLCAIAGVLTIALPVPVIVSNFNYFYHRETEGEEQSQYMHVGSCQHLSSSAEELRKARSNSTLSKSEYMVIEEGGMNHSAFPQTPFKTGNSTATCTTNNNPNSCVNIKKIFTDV
Protocol: as §1, §2, §3

[4] = system: mKate2-tagged Kv1.3 channels; experiment: A-HgTx wash-off and effect on channel distribution, mKate2-tagged Kv1.3 in HEK293 cells; assay type: binding, human
Protocol: as §1
In A-HgTx binding experiments, cells were incubated with A-HgTx (0.15–4 nM) for 30 min (37 °C, 5% CO2) in the complete medium. […]
as §3

[5] = target: T2, K-ΔKv1.3 (N-terminally truncated human Kv1.3 tagged with mKate2); experiment: Confocal imaging of A-HgTx binding and displacement, K-ΔKv1.3 in Neuro-2A cells; parameters: expressed in transfected cells; host or cells: HEK293 (transient transfection with pmKate2-KCNA3-del); conditions: 2 nM A-HgTx
Protocol: Mouse Neuro-2A neuroblastoma cells were purchased from the Russian collection of cell cultures (Institute of Cytology, Saint Petersburg, Russia). Cells were cultured in DMEM (Paneco, Russia) supplemented with 10% fetal bovine serum (PAA Laboratories, Austria) and penicillin–streptomycin 100 U/mL. Cells were subcultured twice a week. Cells were plated at a density of 3×10^4 cells per well on cover glasses coated with poly-D-lysine and 24 h latter subjected to the transfection with plasmid pmKate2-KCNA3-del as described above.
Figure S5. Confocal imaging of A-HgTx interactions with K-ΔKv1.3channels transiently expressed in Neuro-2A cells. (A, B) Distri-
(20 nM) from the complexes with K-ΔKv1.3 at the membrane of cells. Scale bar is 20 µm. Green and red colors – fluorescence of A-
HgTx and K-ΔKv1.3, respectively.
Figure S6. Concentration dependence of A-HgTx binding to K-Kv1.3 on a cell membrane that was measured as the dependence of
Rav on the concentration L of A-HgTx added to HEK293 cells transiently transfected with K-Kv1.3.
(also on this page, place not known: Neuro -2A K -ΔKv1.3. A -HgTx K -ΔKv1.3 0.0 0.5 1.0 1.5 2.0 0.0 0.5 1.0 1.5 L, nM Rav) […]

[6] = system: Kv1.3-K (human Kv1.3 C-terminally tagged with mKate2); experiment: Confocal imaging of A-HgTx binding and displacement, Kv1.3-K in HEK293 cells
Protocol: as §1, with “channels. […]” for “channels.”
as §3

[7] = target: T2, K-ΔKv1.3 (N-terminally truncated human Kv1.3 tagged with mKate2); experiment: Whole-cell patch-clamp, K-ΔKv1.3 expressed in Neuro-2A cells; assay type: cell-based; parameters: expressed in transfected cells; conditions: N2a, +50 mV, 20–25 °C, pH 7.4, mean ± SEM
Protocol: The K-ΔKv1.3 channel and A-HgTx were characterized by a whole-cell patch-clamp technique. Taking into account that “the kinetic properties of the homomeric Kv channels are largely consistent across host cell lines” [42], we studied K-ΔKv1.3 presented at the membrane of mouse Neuro-2A neuroblastoma cells, which are routinely used in our electrophysiological experiments.
The ion currents were analyzed in the whole-cell configuration by depolarizing steps from −70 to 70 mV in 20 mV increments from a holding potential of −40 mV.
Test pulses having duration of 200 ms were applied stepwise with an interval of 20 s with a step of 20 mV from −70 to +70 mV then returning to a holding potential. […] Data were averaged (mean ± SEM) over ten (E) and twelve (F) cells.
(A,B) Representative series of currents before (A) and after addition of 2 nM A-HgTx (B). […]
K-ΔKv1.3-channel ion currents were recorded by the patch-clamp technique using an EPC-10 amplifier (HEKA Elektronik, Germany) in a standard whole-cell configuration. […]
Briefly, in 24–48 h after transfection, cover glasses with attached Neuro2a cells were placed in a chamber with an extracellular solution (mM): 140 NaCl, 2.8 KCl, 2 MgCl2, 2 CaCl2, 10 HEPES and 10 glucose (pH 7.4) and perfused continuously. Selection of cells for the measurements was guided by membrane fluorescence of K-ΔKv1.3. […]

[8] = target: T2, K-ΔKv1.3 (N-terminally truncated human Kv1.3 tagged with mKate2); experiment: Fluorescent competitive binding assay (FCBA), displacement of A-HgTx from K-ΔKv1.3; parameters: expressed in transfected cells; host or cells: HEK293 (transient transfection with pmKate2-KCNA3-del); conditions: living HEK293 cells; 2 nM A-HgTx; result in words
Description: To quantitatively characterize formation of complexes between A-HgTx and K-ΔKv1.3 on cell membranes, the confocal images of A-HgTx bound at the membrane of the K-ΔKv1.3 presenting cells were subjected to the treatment procedure as follows. Regions of interest (ROIs) corresponding to the plasma membranes stained with K-ΔKv1.3 were selected. Using a set of these ROIs and a threshold procedure (to null a background signal from pixels without K-ΔKv1.3 signal), the binary (0;1) mask that describes membranous localization of K-ΔKv1.3 was created. The images of K-ΔKv1.3 and A-HgTx distribution were multiplied by the corresponding mask. Next, average intensities of fluorescence of K-ΔKv1.3 (Ici) and A-HgTx (Ili) were calculated for each ROI (i.e., for each i-cell), and a ratio Ri was calculated as follows. Ri = (Ili − Ilb)/(Ici − Icb) (1) where Ilb and Icb are intensities of background signals in the fluorescent images of A-HgTx and Kv1.3 channels, respectively. Calculating Ri (i.e., normalizing A-HgTx intensity to that of K-ΔKv1.3), a correction was introduced for variations in a level of K-ΔKv1.3 expression on the membrane of particular cells. Ri values of 15–20 cells were averaged to obtain the Rav value, and a standard deviation was calculated.
Concentration of A-HgTx was 2 nM. Concentration of pore blockers C varied as indicated in the graph.
When Kd of A-HgTx and IC50 for the studied compound are known, the apparent dissociation constant Kap of complexes between the compound and channel can be calculated using the Cheng-Prusoff equation [50]:Kap = IC50/(1 + L/Kd)(4) where L is the concentration of A-HgTx in the competitive binding experiment.
In A-HgTx binding experiments, cells were incubated with A-HgTx (0.15–4 nM) for 30 min (37 °C, 5% CO2) in the complete medium. In competitive binding experiments, cells were incubated with A-HgTx (2 nM) and selected pore blocker at variable concentrations (0.5–100 nM for recombinant peptides and 1–20 mM for TEA) for 30 min (37 °C, 5% CO2) in the complete medium.
Experiments with HEK293 cells were performed with a laser scanning confocal microscope Leica-SP2 (Leica Microsystems GmbH, Wetzlar, Germany). The water-immersion 63×/1.2 NA HCX PL APO objective was used.
Each experimental point in the curves describing interaction A-HgTx with mKate2-tagged Kv1.3 channels is an average over 15–25 treated images of cells. […]

[9] = 2 nM A-HgTx, living HEK293 cells
[10] = HgTx1 40 nM vs A-HgTx 2 nM, HEK293 cells

SMILES	binding of A-HgTx to K-Kv1.3 [1, 9]	binding of A-HgTx at the membrane of intact HEK293 cells (non-specific binding) [2]	binding of A-HgTx to K-ΔKv1.3 [3, 9]	effect of A-HgTx binding on membrane distribution of the Kv1.3 channels ([4]; nano-molar A-HgTx, HEK293 cells, confocal imaging)	dissociation of A-HgTx from the cell membrane on washing ([4]; washing HEK293 cells with fresh medium, data not shown)	binding of A-HgTx at the membrane of K-ΔKv1.3 expressing Neuro-2A cells [5]	binding of A-HgTx to Kv1.3-K [6, 9]	inhibition at 0.002 µM ([7]; 2 nM A-HgTx, n = 10, read-out: inhibition of K-ΔKv1.3 currents by A-HgTx) [%]	inhibition at 0.01 µM ([7]; 10 nM A-HgTx, n = 3, read-out: inhibition of K-ΔKv1.3 currents by A-HgTx) [%]	displacement of A-HgTx from the complexes with K-ΔKv1.3 [8]	displacement of A-HgTx from K-Kv1.3 [1, 10]	displacement of A-HgTx from K-ΔKv1.3 [3, 10]	displacement of A-HgTx from Kv1.3-K [6, 10]
CC[C@H](C)[C@@H]1NC(=O)CNC(=O)[C@H](Cc2ccccc2)NC(=O)[C@H](CCC(N)=O)NC(=O)[C@H](C)NC(=O)[C@H](CCCCN)NC(=O)[C@@H]2CSSC[C@@H](C(=O)N[C@@H](Cc3ccc(O)cc3)C(=O)N3CCC[C@H]3C(=O)N[C@@H](Cc3c[nH]cn3)C(=O)O)NC(=O)[C@H](CCCCN)NC(=O)[C@@H]3CSSC[C@H](NC(=O)[C@H](CCC(N)=O)NC(=O)[C@H](CCCCN)NC(=O)[C@@H]4CCCN4C(=O)[C@H](CO)NC(=O)[C@H]([C@@H](C)O)NC(=O)[C@@H](NC(=O)[C@H](CCCCN)NC(=O)[C@@H](NC(=O)[C@H](CC(=O)O)NC(=O)[C@@H](NC(=O)[C@@H](NC(=O)[C@@H](NC(=O)CCCN(C)C(=O)c4ccccc4-c4c5ccc(=N)c(S(=O)(=O)O)c-5oc5c(S(=O)(=O)O)c(N)ccc45)[C@@H](C)O)C(C)C)[C@@H](C)CC)C(C)C)CSSC[C@H](NC(=O)[C@H](CCCCN)NC(=O)[C@H](C)NC(=O)CNC(=O)[C@H](C)NC(=O)[C@H](CCCNC(=N)N)NC1=O)C(=O)N[C@@H](CCSC)C(=O)N[C@@H](CC(N)=O)C(=O)NCC(=O)N[C@@H](CCCCN)C(=O)N3)C(=O)N[C@@H](CC(C)C)C(=O)N1CCC[C@H]1C(=O)N1CCC[C@H]1C(=O)N2 [A-HgTx] (HELM PEPTIDE1{[N=c1ccc2c(-c3ccccc3C(=O)[*:2])c3ccc(N)c(S(=O)(=O)O)c3oc-2c1S(=O)(=O)O].[CN(CCCC(=O)[*:2])[*:1]].T.V.I.D.V.K.C.T.S.P.K.Q.C.L.P.P.C.K.A.Q.F.G.I.R.A.G.A.K.C.M.N.G.K.C.K.C.Y.P.H}$PEPTIDE1,PEPTIDE1,9:R3-31:R3|PEPTIDE1,PEPTIDE1,15:R3-36:R3|PEPTIDE1,PEPTIDE1,19:R3-38:R3$$$V2.0; C-terminus assumed)	bind A-HgTx	negligible non-specific binding; also recorded: No binding of A-HgTx was observed	bind A-HgTx	does not lead to noticeable changes	rapid (in a few minutes) dissociation	bound at the membrane of cells expressing K-ΔKv1.3	bind A-HgTx	42 ± 6	83 ± 3	–	–	–	–
CC[C@H](C)[C@@H]1NC(=O)CNC(=O)[C@H](Cc2ccccc2)NC(=O)[C@H](CCC(N)=O)NC(=O)[C@H](C)NC(=O)[C@H](CCCCN)NC(=O)[C@@H]2CSSC[C@@H](C(=O)N[C@@H](Cc3ccc(O)cc3)C(=O)N3CCC[C@H]3C(=O)N[C@@H](Cc3c[nH]cn3)C(=O)O)NC(=O)[C@H](CCCCN)NC(=O)[C@@H]3CSSC[C@H](NC(=O)[C@H](CCC(N)=O)NC(=O)[C@H](CCCCN)NC(=O)[C@@H]4CCCN4C(=O)[C@H](CO)NC(=O)[C@H]([C@@H](C)O)NC(=O)[C@@H](NC(=O)[C@H](CCCCN)NC(=O)[C@@H](NC(=O)[C@H](CC(=O)O)NC(=O)[C@@H](NC(=O)[C@@H](NC(=O)[C@@H](N)[C@@H](C)O)C(C)C)[C@@H](C)CC)C(C)C)CSSC[C@H](NC(=O)[C@H](CCCCN)NC(=O)[C@H](C)NC(=O)CNC(=O)[C@H](C)NC(=O)[C@H](CCCNC(=N)N)NC1=O)C(=O)N[C@@H](CCSC)C(=O)N[C@@H](CC(N)=O)C(=O)NCC(=O)N[C@@H](CCCCN)C(=O)N3)C(=O)N[C@@H](CC(C)C)C(=O)N1CCC[C@H]1C(=O)N1CCC[C@H]1C(=O)N2 [HgTx1, hongotoxin 1, reference compound] (HELM PEPTIDE1{T.V.I.D.V.K.C.T.S.P.K.Q.C.L.P.P.C.K.A.Q.F.G.I.R.A.G.A.K.C.M.N.G.K.C.K.C.Y.P.H}$PEPTIDE1,PEPTIDE1,7:R3-29:R3|PEPTIDE1,PEPTIDE1,13:R3-34:R3|PEPTIDE1,PEPTIDE1,17:R3-36:R3$$$V2.0; N-terminus and C-terminus assumed)	–	–	–	–	–	–	–	–	–	displaced from the complexes with K-ΔKv1.3	displaces bound A-HgTx	displaces bound A-HgTx	displaces bound A-HgTx
